Results reported in US8633245B2, “PAI-1 inhibitor” (Institute of Medicinal Molecular Design, Inc., priority 2008, dated 2014).

Molecular target: T1, recombinant human PAI-1 (Homo sapiens, UniProt P05121)
T1 construct: purchased Molecular Innovations, Inc
Test: Test Example 2: human PAI-1 inhibitory activity (tPA fluorogenic substrate, pH 7.4 HEPES buffer)
Format: biochemical
Details: human PAI-1
Experimental: 0.1 M HEPES, 0.1 M NaCl. 1 mM EDTA. 0.1% Polyethylene glycol 8,000 (Hampton Research Corporation),
2 mM Dimethyldecylphoshine oxide [Apo-10] (Fluka Corporation)

T1 sequence (P05121 24-402): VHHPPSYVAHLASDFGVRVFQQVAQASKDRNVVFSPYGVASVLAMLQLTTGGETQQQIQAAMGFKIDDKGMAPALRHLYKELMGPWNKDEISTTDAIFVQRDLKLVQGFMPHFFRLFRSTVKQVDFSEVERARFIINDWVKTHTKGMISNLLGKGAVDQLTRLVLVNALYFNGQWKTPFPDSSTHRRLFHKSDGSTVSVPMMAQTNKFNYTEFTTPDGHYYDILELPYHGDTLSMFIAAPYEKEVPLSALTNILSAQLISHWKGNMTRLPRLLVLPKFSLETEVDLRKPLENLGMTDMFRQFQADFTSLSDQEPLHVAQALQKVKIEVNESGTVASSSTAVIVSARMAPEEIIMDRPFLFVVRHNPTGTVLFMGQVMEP

Row | SMILES | Inhibition Rate of PAI-1 Activity (%) (compound concentration 0.1 μM) | Inhibition Rate of PAI-1 Activity (%) (compound concentration 0.3 μM) | Inhibition Rate of PAI-1 Activity (%) (compound concentration 1 μM) | Inhibition Rate of PAI-1 Activity (%) (compound concentration 3 μM) | Inhibition Rate of PAI-1 Activity (%) (compound concentration 10 μM) | Inhibition Rate of PAI-1 Activity (%) (compound concentration 25 μM)
1 | CC(C)c1ccc(Sc2cc(-c3ccc(OC(F)(F)F)cc3)ccc2/C=C/C(=O)O)cc1 [Compound 516] | 16 | 39 | 98 | >99 |  | 
2 | CC(C)c1ccc(-c2ccc(/C=C/C(=O)O)c(Oc3ccc(C(C)(C)C)cc3)c2)cc1 [Compound 518] | 14 | 54 | >99 | >99 |  | 
3 | CC(C)c1ccc(-c2ccc(CCC(=O)O)c(Oc3ccc(C(C)(C)C)cc3)c2)cc1 [Compound 519] | 1 | 19 | >99 | >99 |  | 
4 | CC(C)c1ccc(-c2ccc(/C=C/C(=O)O)c(Sc3ccc(C(C)(C)C)cc3)c2)cc1 [Compound 520] | 14 | 72 | >99 | >99 |  | 
5 | CCC(CC)Oc1ccc(-c2ccc(/C=C/C(=O)O)c(Oc3ccc(C(C)(C)C)cc3)c2)cc1 [Compound 521] | 25 | 82 | >99 | >99 |  | 
6 | CCC(CC)Oc1ccc(-c2ccc(CCC(=O)O)c(Oc3ccc(C(C)(C)C)cc3)c2)cc1 [Compound 522] | 33 | 71 | 98 | 98 |  | 
7 | CCCCOc1ccc(Oc2cc(-c3ccc(OC(F)(F)F)cc3)ccc2OCC(=O)O)cc1 [Compound 523] | 11 | 15 | 78 | >99 |  | 
8 | O=C(O)/C=C/c1ccc(-c2ccc(OC(F)(F)F)cc2)cc1Sc1ccccc1 [Compound 528] | 8 | 12 | 51 | 97 |  | 
9 | CC(C)(C)c1ccc(Oc2cc(Nc3ccc(OC(F)(F)F)cc3)ccc2/C=C/C(=O)O)cc1 [Compound 531] | 3 | 38 | 94 | 96 |  | 
10 | CC(C)(C)c1ccc(Oc2cc(Nc3ccc(OC(F)(F)F)cc3)ccc2CCC(=O)O)cc1 [Compound 532] | 12 | 59 | >99 | >99 |  | 
11 | CCCCN(CC(=O)O)c1ccc(-c2ccc(OC(F)(F)F)cc2)cc1Oc1ccc(C(C)(C)C)cc1 [Compound 533] | 25 | 83 | 97 | 97 |  | 
12 | CC(C)(C)c1ccc(Oc2cc(Nc3ccc(OC(F)(F)F)cc3)ccc2OCC(=O)O)cc1 [Compound 536] | 1 | 12 | 87 | >99 |  | 
13 | CC(C)(C)c1ccc(Oc2ccc(Oc3ccc(OC(F)(F)F)cc3)cc2OCC(=O)O)cc1 [Compound 537] | 0 | 26 | 92 | 97 |  | 
14 | CC(C)(C)c1ccc(Oc2cc(Oc3ccc(OC(F)(F)F)cc3)ccc2OCC(=O)O)cc1 [Compound 538] | 0 | 12 | 87 | 98 |  | 
15 | O=C(O)/C=C/c1cc(-c2ccc(OC(F)(F)F)cc2)ccc1OCCCCCOc1ccc(-c2ccc(OC(F)(F)F)cc2)cc1/C=C/C(=O)O [Compound 543] | 0 | 1 | 73 | 94 |  | 
16 | O=C(O)CCc1cc(-c2ccc(OC(F)(F)F)cc2)ccc1OCCCCCOc1ccc(-c2ccc(OC(F)(F)F)cc2)cc1CCC(=O)O [Compound 544] | 0 | 3 | 56 | 92 |  | 
17 | O=C(O)CC(=O)N(Cc1ccccc1)c1ccc(-c2ccc(OC(F)(F)F)cc2)cc1F [Compound 602] |  |  | 9 | 18 | 78 | >99
18 | CC(C)(C)c1ccc(CN(C(=O)CCCC(=O)O)c2ccc(-c3ccc(OC(F)(F)F)cc3)cc2)cc1 [Compound 604] |  |  | 0 | 20 | 36 | 46
19 | CC(C)(C)c1ccc(CN(C(=O)CC(=O)O)c2ccc(-c3ccc(OC(F)(F)F)cc3)cc2)cc1 [Compound 608] |  |  | 11 | 59 | 95 | 95
20 | CC(C)(C)c1ccc(N(CC(=O)O)c2ccccc2Oc2ccc(OC(F)(F)F)cc2)cc1 [Compound 610] |  |  | 49 | 94 | 97 | 86
21 | O=C(O)C(=O)N(Cc1ccc(-c2ccc(OC(F)(F)F)cc2)cc1)c1ccccc1 [Compound 611] |  |  | 5 | 13 | 45 | 81
22 | CC(C)(C)c1ccc(N(Cc2ccc(-c3ccccc3)cc2)C(=O)C(=O)O)cc1 [Compound 612] |  |  | 7 | 25 | 84 | >99
23 | CC(C)(C)c1ccc(CN(C(=O)C(=O)O)c2ccc(C(=O)Nc3ccc(OC(F)(F)F)cc3)cc2)cc1 [Compound 617] |  |  | 6 | 64 | >99 | >99
24 | CN(C(=O)c1ccc(N(Cc2ccc(C(C)(C)C)cc2)C(=O)C(=O)O)cc1)c1ccc(OC(F)(F)F)cc1 [Compound 618] |  |  | 0 | 24 | 78 | >99
25 | CC(C)(C)c1ccc(CN(C(=O)C(=O)O)c2ccc(N3CCN(c4ccccc4)CC3)cc2)cc1 [Compound 627] |  |  | 0 | 14 | 57 | >99

More lines, now with the values ahead:

Row | Inhibition Rate of PAI-1 Activity (%) (compound concentration 0.1 μM) | Inhibition Rate of PAI-1 Activity (%) (compound concentration 0.3 μM) | Inhibition Rate of PAI-1 Activity (%) (compound concentration 1 μM) | Inhibition Rate of PAI-1 Activity (%) (compound concentration 3 μM) | Inhibition Rate of PAI-1 Activity (%) (compound concentration 10 μM) | Inhibition Rate of PAI-1 Activity (%) (compound concentration 25 μM) | SMILES
26 | 20 | 50 | 95 | >99 |  |  | CC(C)(C)c1ccc(Sc2cc(-c3ccc(OC(F)(F)F)cc3)ccc2CCC(=O)O)cc1 [Compound 517]
27 | 6 | 36 | 98 | >99 |  |  | CC(C)(C)c1ccc(Oc2cc(-c3ccc(OC(F)(F)F)cc3)ccc2CCCC(=O)O)cc1 [Compound 527]
28 | 18 | 29 | 94 | >99 |  |  | CC(C)(C)c1ccc(Sc2cc(-c3ccc(OC(F)(F)F)cc3)ccc2/C=C\C(=O)O)cc1 [Compound 529]
29 | 17 | 21 | 93 | >99 |  |  | CC(C)(C)c1ccc(Sc2cc(-c3ccc(OC(F)(F)F)cc3)ccc2CC(=O)O)cc1 [Compound 530]
30 | 13 | 21 | 84 | >99 |  |  | CN(CC(=O)O)c1ccc(-c2ccc(OC(F)(F)F)cc2)cc1Oc1ccc(C(C)(C)C)cc1 [Compound 534]
31 | 4 | 17 | 97 | >99 |  |  | CC(C)(C)c1ccc(Sc2cc(-c3ccc(OC(F)(F)F)cc3)ccc2C(=O)O)cc1 [Compound 547]
32 | 0 | 16 | 95 | >99 |  |  | CC(C)(C)c1ccc(Sc2cc(-c3ccc(OC(F)(F)F)cc3)ccc2C(=O)C(=O)O)cc1 [Compound 548]
33 | 23 | 22 | 84 | >99 |  |  | CC(C)(C)c1ccc(C(=O)c2cc(-c3ccc(OC(F)(F)F)cc3)ccc2OCC(=O)O)cc1 [Compound 549]
34 | 0 | 2 | 81 | >99 |  |  | CC(C)(C)c1ccc(Cc2cc(-c3ccc(OC(F)(F)F)cc3)ccc2OCC(=O)O)cc1 [Compound 550]
35 | 0 | 4 | 92 | >99 |  |  | CC(C)(C)c1ccc(CCc2cc(-c3ccc(OC(F)(F)F)cc3)ccc2OCC(=O)O)cc1 [Compound 551]
36 |  |  | 43 | 98 | >99 | 95 | CC(C)(C)c1ccc(-c2ccc(CN(C(=O)C(=O)O)c3ccc(OC(F)(F)F)cc3)cc2)cc1 [Compound 615]
